In US5798370A, “Platelet aggregation inhibitors” (G. D. Searle & Co., priority 1996, dated 1998):
Counter-ions that a name gives are not always drawn.

Test system: Human Platelet Rich Plasma
Test: ADP induced Aggregation of Human Platelet Rich Plasma
Type: cell-based
Settings: 37° C., half-maximal inhibition, read-out: Human Platelet Agg IC50
Procedure: Healthy aspirin free donors were randomly selected from a pool of volunteers. The harvesting of platelet rich plasma and subsequent ADP induced platelet aggregation assays were performed as described in Zucker, M. B., "Platelet Aggregation Measured by the Photometric Method", Methods in Enzymology 169(1989):117-133. Standard venipuncture techniques using a butterfly allowed the withdrawal of 45 mL of whole blood into a 60 mL syringe containing 5 mL of 3.8% trisodium citrate. Following thorough mixing in the syringe, the anti-coagulated whole blood was transferred to a 50 mL conical polyethylene tube. The blood was centrifuged at room temperature for 12 minutes at 200 xg to sediment non-platelet cells. Platelet rich plasma was removed to a polyethylene tube and stored at room temperature until used. Platelet poor plasma was obtained from a second centrifugation of the remaining blood at 2000 xg for 15 minutes. Platelet counts are typically 300,000 to 500,000 per microliter. Platelet rich plasma (0.45 mL) was aliquoted into siliconized cuvettes and stirred (1100 rpm) at 37° C. for 1 minute prior to adding 50 uL of pre-diluted test compound. […] Aggregation was recorded for 3 minutes in a Payton dual channel aggregometer (Payton Scientific, Buffalo, N.Y.). […] All compounds were tested in duplicate and half-maximal inhibition (IC50) was calculated graphically from the dose response curve.

Compound	IC50
N=C(N)NCCCC(=O)NCCC(=O)NC(CC(=O)O)c1cccnc1 (racemic) [Example 5, (±) β-[[3-[[4-[(aminoiminomethyl)amino]-1-oxobutyl]amino]-1-oxopropyl]amino]-3-pyridinepropanoic acid, bistrifluoroacetate salt]	200 µM
N=C(N)NCCCCC(=O)NCC(=O)NC(CC(=O)O)c1cccnc1 (stereo not drawn) [Example 1, β-[[2-[[5-[(aminoiminomethyl)amino]-1-oxopentyl]amino]-1-oxoethyl]amino]-3-pyridinepropanoic acid, bistrifluoroacetate salt]	20 µM
